The values that follow come from patent US8110571B2, “Benzimidazole and benzothiazole derivatives, method for preparing same, use thereof as drugs, pharmaceutical compositions and novel use especially as c-MET inhibitors” (Aventis Pharma S.A., priority 2005, dated 2012).

Structures can show the parent of a compound that is named as a salt.

Take `CN1CCN(c2ccc(CNC(=O)Nc3nc4ccc(OS(=O)(=O)c5c(Cl)cccc5Cl)cc4s3)cc2)CC1` (as salt: benzene-sulfonate) [Example 52, 2-({[4-(4-methylpiperazin-1-yl)benzyl]carbamoyl}amino)-1,3-benzothiazol-6-yl 2,6-dichlorobenzene-sulfonate]: the melting point came out at 88 °C.

For the molecule `COCCNC(=O)Nc1nc2cc(OS(=O)(=O)c3c(Cl)cccc3Cl)ccc2[nH]1` (as salt: benzenesulfonate) [Example 1, 2-{[(2-methoxyethyl)carbamoyl]amino}-1H-benzimidazol-5-yl 2,6-dichlorobenzenesulfonate], the melting point stood at 171 °C.

Regarding `COCCNC(=O)Nc1nc2cc(OS(=O)(=O)c3c(C)cccc3Cl)ccc2[nH]1` (as salt: benzenesulfonate) [Example 2, 2-{[(2-Methoxyethyl)carbamoyl]amino}-1H-benzimidazol-5-yl 2-chloro-6-methylbenzenesulfonate], the melting point stood at 138 °C.

The molecule `COCCNC(=O)Nc1nc2cc(OS(=O)(=O)c3c(C)cc(C)cc3C)ccc2[nH]1` (as salt: benzenesulfonate) [Example 3, 2-{[(2-Methoxyethyl)carbamoyl]amino}-1H-benzimidazol-5-yl 2,4,6-trimethylbenzenesulfonate] gave a melting point of 140 °C.

As to `O=C(NCCN1CCOCC1)Nc1nc2cc(OS(=O)(=O)c3c(Cl)cccc3Cl)ccc2[nH]1` (as salt: benzenesulfonate) [Example 5, 2-{[(2-Morpholin-4-ylethyl)carbamoyl]amino}-1H-benzimidazol-5-yl 2,6-dichlorobenzenesulfonate], the melting point was 149 °C.

In turn, `O=C(NCCN1CCOCC1)Nc1nc2cc(OS(=O)(=O)c3c(F)cccc3F)ccc2[nH]1` (as salt: benzenesulfonate) [Example 9, 2-{[(2-Morpholin-4-ylethyl)carbamoyl]amino}-1H-benzimidazol-5-yl 2,6-difluorobenzenesulfonate] registered a melting point of 190 to 192 °C.

For the molecule `O=C(Nc1nc2cc(OS(=O)(=O)c3c(Cl)cccc3Cl)ccc2[nH]1)NC1CC1` (as salt: benzenesulfonate) [Example 12, 2-[(Cyclopropylcarbamoyl)amino]-1H-benzimidazol-5-yl 2,6-dichlorobenzenesulfonate], the melting point was in the range of 160 to 165 °C.

For the molecule `O=C(NCc1ccccn1)Nc1nc2cc(OS(=O)(=O)c3c(Cl)cccc3Cl)ccc2[nH]1` (as salt: benzenesulfonate) [Example 15, 2-{[(Pyridin-2-ylmethyl)carbamoyl]amino}-1H-benzimidazol-5-yl 2,6-dichlorobenzenesulfonate], the melting point came to 204 °C.

Molecule `O=C(NCc1cccnc1)Nc1nc2cc(OS(=O)(=O)c3c(Cl)cccc3Cl)ccc2[nH]1` (as salt: benzenesulfonate) [Example 16, 2-{[(Pyridin-3-ylmethyl)carbamoyl]amino}-1H-benzimidazol-5-yl 2,6-dichlorobenzenesulfonate] yielded a melting point of 210 °C.

For the molecule `O=C(NCc1ccncc1)Nc1nc2cc(OS(=O)(=O)c3c(Cl)cccc3Cl)ccc2[nH]1` (as salt: benzenesulfonate) [Example 17, 2-{[(Pyridin-4-ylmethyl)carbamoyl]amino}-1H-benzimidazol-5-yl 2,6-dichlorobenzenesulfonate], the melting point fell in the range of 165 to 170 °C.

For the molecule `O=C(NCc1ccccc1)Nc1nc2cc(OS(=O)(=O)c3c(Cl)cccc3Cl)ccc2[nH]1` (as salt: benzenesulfonate) [Example 18, 2-[(Benzylcarbamoyl)amino]-1H-benzimidazol-5-yl 2,6-dichlorobenzenesulfonate], the melting point was found to be 195 °C.

On to `O=C(NCCc1cccnc1)Nc1nc2cc(OS(=O)(=O)c3c(Cl)cccc3Cl)ccc2[nH]1` (as salt: benzenesulfonate) [Example 19, 2-{[(2-Pyridin-3-ylethyl)carbamoyl]amino}-1H-benzimidazol-5-yl 2,6-dichlorobenzenesulfonate], for which the melting point turned out to be 131 °C.

Molecule `CN1CCN(CCNC(=O)Nc2nc3cc(OS(=O)(=O)c4c(Cl)cccc4Cl)ccc3[nH]2)CC1` (as salt: benzenesulfonate) [Example 20, 2-({[2-(4-Methylpiperazin-1-yl)ethyl]carbamoyl}amino)-1H-benzimidazol-5-yl 2,6-dichlorobenzenesulfonate] yielded a melting point of 180 °C.

For `O=C(NCCN1CCNCC1)Nc1nc2cc(OS(=O)(=O)c3c(Cl)cccc3Cl)ccc2[nH]1` (as salt: benzenesulfonate) [Example 21, 2-{[(2-piperazin-1-ylethyl)carbamoyl]amino}-1H-benzimidazol-5-yl 2,6-dichlorobenzenesulfonate], the melting point lay within 145 to 150 °C.

Turning to `O=C(NCCC1CCNCC1)Nc1nc2cc(OS(=O)(=O)c3c(Cl)cccc3Cl)ccc2[nH]1` (as salt: benzenesulfonate) [Example 22, 2-{[(2-Piperidin-4-ylethyl)carbamoyl]amino}-1H-benzimidazol-5-yl 2,6-dichlorobenzenesulfonate], the melting point came out at 165 °C.

Molecule `CC(C)(C)OC(=O)Nc1nc2cc(OS(=O)(=O)c3c(Cl)cccc3Cl)ccc2[nH]1` (as salt: benzenesulfonate) [Example 23, 2-[(tert-Butoxycarbonyl)amino]-1H-benzimidazol-5-yl 2,6-dichlorobenzenesulfonate] returned a melting point of 205 °C.

In turn, `O=C(Nc1nc2cc(OS(=O)(=O)c3c(Cl)cccc3Cl)ccc2[nH]1)C1CC1` (as salt: benzenesulfonate) [Example 24, 2-[(Cyclopropylcarbonyl)amino]-1H-benzimidazol-5-yl 2,6-dichlorobenzenesulfonate] showed a melting point of 242 °C.

`O=C(CCc1cccnc1)Nc1nc2cc(OS(=O)(=O)c3c(Cl)cccc3Cl)ccc2[nH]1` (as salt: benzenesulfonate) [Example 25, 2-[(3-Pyridin-3-ylpropanoyl)amino]-1H-benzimidazol-5-yl 2,6-dichlorobenzenesulfonate] came in with a melting point of 188 °C.

The molecule `O=C(CCC1CCN(C(=O)c2ccccc2)CC1)Nc1nc2cc(OS(=O)(=O)c3c(Cl)cccc3Cl)ccc2[nH]1` (as salt: benzenesulfonate) [Example 26, 2-{[3-(1-Benzoylpiperidin-4-yl)propanoyl]amino}-1H-benzimidazol-5-yl 2,6-dichlorobenzenesulfonate] showed a melting point of 135 °C.

In turn, `O=C(CCC1CCNCC1)Nc1nc2cc(OS(=O)(=O)c3c(Cl)cccc3Cl)ccc2[nH]1` (as salt: benzenesulfonate) [Example 27, 2-[(3-Piperidin-4-ylpropanoyl)amino]-1H-benzimidazol-5-yl 2,6-dichlorobenzenesulfonate] displayed a melting point of 135 °C.

As for `O=C(Nc1nc2cc(OS(=O)(=O)c3c(F)cccc3F)ccc2[nH]1)C1CC1` (as salt: benzenesulfonate) [Example 29, 2-[(Cyclopropylcarbonyl)amino]-1H-benzimidazol-5-yl 2,6-difluorobenzenesulfonate], the melting point came to 174 °C.

Molecule `O=C(NCc1ccccn1)Nc1nc2ccc(OS(=O)(=O)c3c(Cl)cccc3Cl)cc2s1` (as salt: benzenesulfonate) [Example 30, 2-{[(Pyridin-2-ylmethyl)carbamoyl]amino}-1,3-benzothiazol-6-yl 2,6-dichlorobenzenesulfonate] showed a melting point of 118 °C.

Turning to `O=C(Nc1nc2ccc(OS(=O)(=O)c3c(Cl)cccc3Cl)cc2s1)NC1CC1` (as salt: benzenesulfonate) [Example 31, 2-[(Cyclopropylcarbamoyl)amino]-1,3-benzothiazol-6-yl 2,6-dichlorobenzenesulfonate], the melting point was 128 °C.

With `O=C(NCCC1CCN(Cc2ccccc2)CC1)Nc1nc2ccc(OS(=O)(=O)c3c(Cl)cccc3Cl)cc2s1` (as salt: benzenesulfonate) [Example 33, 2-({[2-(1-Benzylpiperidin-4-yl)ethyl]carbamoyl}amino)-1,3-benzothiazol-6-yl 2,6-dichlorobenzenesulfonate], the melting point came to 105 °C.

Molecule `O=C(NCCN1CCN(Cc2ccccc2)CC1)Nc1nc2ccc(OS(=O)(=O)c3c(Cl)cccc3Cl)cc2s1` (as salt: benzenesulfonate) [Example 34, 2-({[2-(4-Benzylpiperazin-1-yl)ethyl]carbamoyl}amino)-1,3-benzothiazol-6-yl 2,6-dichlorobenzenesulfonate] gave a melting point of 102 °C.

`O=C(NCCN1CCNCC1)Nc1nc2ccc(OS(=O)(=O)c3c(Cl)cccc3Cl)cc2s1` (as salt: benzenesulfonate) [Example 36, 2-{[(2-piperazin-1-ylethyl)carbamoyl]amino}-1,3-benzothiazol-6-yl 2,6-dichlorobenzenesulfonate] returned a melting point of 158 °C.

As for `O=C(NCCN1CCOCC1)Nc1nc2ccc(OS(=O)(=O)c3ccccc3Cl)cc2s1` (as salt: benzenesulfonate) [Example 40, 2-{[(2-Morpholin-4-ylethyl)carbamoyl]amino}-1,3-benzothiazol-6-yl 2-chlorobenzenesulfonate], the melting point worked out at 100 °C.

`O=C(Nc1nc2ccc(OS(=O)(=O)c3c(F)cccc3F)cc2s1)C1CC1` (as salt: benzenesulfonate) [Example 41, 2-[(Cyclopropylcarbonyl)amino]-1,3-benzothiazol-6-yl 2,6-difluorobenzenesulfonate] yielded a melting point of 145 °C.

`O=C(CCc1cccnc1)Nc1nc2ccc(OS(=O)(=O)c3c(Cl)cccc3Cl)cc2s1` (as salt: benzenesulfonate) [Example 43, 2-[(3-Pyridin-3-ylpropanoyl)amino]-1,3-benzothiazol-6-yl 2,6-dichlorobenzenesulfonate] registered a melting point of 240 °C.

Molecule `O=C(CCN1CCOCC1)Nc1nc2ccc(OS(=O)(=O)c3c(Cl)cccc3Cl)cc2s1` (as salt: benzenesulfonate) [Example 44, 2-[(3-Morpholin-4-ylpropanoyl)amino]-1,3-benzothiazol-6-yl 2,6-dichlorobenzenesulfonate] displayed a melting point of 179 °C.

Regarding `O=C(Cc1cccnc1)Nc1nc2ccc(OS(=O)(=O)c3c(Cl)cccc3Cl)cc2s1` (as salt: benzenesulfonate) [Example 45, 2-[(Pyridin-3-ylacetyl)amino]-1,3-benzothiazol-6-yl 2,6-dichlorobenzenesulfonate], the melting point was determined as 218 °C.

As usually defined, the melting point is the temperature of the solid-liquid transition.
